21 compounds from patent publication EP3053944B1, “METHOD FOR PRODUCING POLYALKYLENE GLYCOL DERIVATIVE HAVING AMINO GROUP AT END, POLYMERIZATION INITIATOR FOR USE IN THE SAME, AND ALCOHOL COMPOUND AS RAW MATERIAL FOR THE POLYMERIZATION INITIATOR” (Shin-Etsu Chemical Co., Ltd., priority 2014, dated 2016) can be followed below.

Each structure is given as a SMILES string.

Common to all, as to format: physicochemical
Data set [1] is described as follows: Solubility of polymerization initiators in polymerization solvents (visual observation). The arrangement: key to solubility to polymerization solvents: Toluene / solubility to polymerization solvents: THF: Excellent: In the case in which cloudiness was not observed at all in the solution by visual observation, the initiator was shown as "excellent"; Poor: in the case in which cloudiness was observed or the initiator did not dissolve at all, or in the case in which the initiator decomposed when the alkoxide was formed from the initiator, the initiator was shown as "poor". The conditions noted are these: for solubility to polymerization solvents: THF: initiator dissolved in THF at 20 wt.%; for solubility to polymerization solvents: THF / solubility to polymerization solvents: Toluene: visual observation; for dissolution in the solvent(s): summary in words of Table 8, THF or toluene, 20 wt.%; for solubility to polymerization solvents: Toluene: initiator dissolved in toluene at 20 wt.%. From the text:
Results of solubility of the initiators 1-2, 6-7, 9-10 and 12, reference initiators 3-5, 8 and 11, and comparative initiators 1 to 8 to polymerization solvents are shown below. THF in each of the products of the initiators 1-2, 6-7, 9-10 and 12, reference initiators 3-5, 8 and 11, and the comparative initiators 1 to 8 synthesized above was distilled away under reduced pressure to extract the polymerization initiators. The results obtained by dissolving each polymerization initiator in each polymerization solvent at a concentration of 20 wt.% are shown. […]

The nature of data set [2]: Stability of the initiator when the alkoxide is formed (migration of protective group). The conditions noted are these: on synthesis of the alkoxide. From the text: Since the silicon-oxygen bond is generally stronger than the silicon-nitrogen bond, there is a possibility that exchange reaction between the silicon-nitrogen bond and the silicon-oxygen bond progresses within a molecule during synthesis of a silyl-protected amino group-containing alkoxide in the case in which a five-membered ring or six-membered ring structure containing a silicon-oxygen bond can be formed. Therefore, when polymerization is tried using, for example, a compound represented by the following general formula (0a) as a polymerization initiator, polymerization progresses from the amino group side, not from the alkoxide side, and a target polyalkylene glycol derivative cannot be obtained. In contrast, in the polymerization initiator (for example, the following formulas (1a) and (2a)) represented by the general formulas (1) and/or (2) for use in the present embodiment 2, production of the five-membered or six-membered ring containing a silicon-oxygen bond is suppressed by extending the length of a chain that connects nitrogen and oxygen that constitutes O^-M^+ to 4 or more, so that a stable structure can be formed in a state of being an alkoxide. As a result thereof, polymerization progresses from the alkoxide side, and the target polyalkylene glycol derivative can be obtained. [drawing 36]

Data set [3] in a line: Visual check for salt precipitation and cloudiness in the THF solution after initiator synthesis. An excerpt:
Among others, as the solvent for use in the [Pre-Step 2], the same solvent as will be used as the polymerization solvent in the subsequent [Step a] as will be described later is preferably used. The reason is because whether the polymerization initiator synthesized in the [Pre-Step 2] dissolves or not in the polymerization solvent for use in the [Step a] can be confirmed in advance during the synthesis of the polymerization initiator in the [Pre-Step 2]. […] […] By confirming whether the precipitation of a salt and […] of the polymerization initiator represented by the general formula (I) in THF, the solubility of the polymerization initiator in the polymerization solvent in the subsequent [Step a] can be confirmed in advance.
In a glove box under a nitrogen atmosphere, […], and after the mineral oil was washed with hexane to be separated, vacuum drying was performed for about two hours to obtain 0.50 g (12.5 mmol) of potassium hydride. Into the flask, 7.71 g of distilled THF was added with a syringe, and 4.44 g (12.8 mmol) of the compound represented by the general formula (iA) was dripped at normal temperature. Stirring was performed at normal temperature for 1 hour and then at 50°C for 2 hours, so that 12.40 g (1.02 mmol/g) of a THF solution of the compound represented by the general formula (IA) was produced. […]

For `OCCOCCOCCOCCCN(Cc1ccccc1)Cc1ccccc1` [Ref 8], in data set [1], the “solubility to polymerization solvents: THF” value (from here on “solubility … THF”) is reported as “Excellent” and the “dissolution in the solvent(s)” value is reported as “dissolved in a solvent”.

On to `CC[Si](CC)(CC)N(CCCCCCO)[Si](CC)(CC)CC` [Initiator 10], for which, in data set [1], the “solubility to polymerization solvents: Toluene” value (shortened to “solubility … Toluene”) is on record as “Excellent” and the “dissolution in the solvent(s)” value is reported as “dissolved in the solvent”. Also, in data set [2], the “stability of the initiator” value was “stably existed”.

On to `CC[Si](CC)(CC)N(CCCOCCO)[Si](CC)(CC)CC` [iA], for which the “Precipitation of a salt and cloudiness” value in data set [3] ((IA) mass/THF solution mass=22.3 wt.%, prepared with potassium naphthalene) was “not observed”; in data set [3] ((IA) mass/THF solution mass=39.8 wt.%, prepared with potassium hydride) it was “not observed”.

Turning to `CC(C)(C)OC(=O)N(CCCOCCO)C(=O)OC(C)(C)C` [Initiator 9], in data set [1], the “solubility … THF” value is “Excellent” and the “dissolution in the solvent(s)” value is listed as “dissolved in a solvent”.

For `CC(C)(C)[Si](C)(C)NCCCO` [Comparative initiator 5, reference compound], in data set [1], the “solubility … THF” value is “Poor” and the “solubility … Toluene” value is reported as “Poor”. In addition, in data set [2], the “stability of the initiator” value is on record as “changes in the position protected by a protective group progressed”.

Take `CC[Si](CC)(CC)N(CCCOCCOCCO)[Si](CC)(CC)CC` [Initiator 2]: in data set [1], the “solubility … THF” value is on record as “Excellent” and the “dissolution in the solvent(s)” value was “dissolved in the solvent”. Further, the “stability of the initiator” value in data set [2] is listed as “stably existed”.

As to `C=CCN(CC=C)CCCOCCO` [Ref 3], in data set [1], the “solubility … THF” value is given as “Excellent” and the “dissolution in the solvent(s)” value is “dissolved in a solvent”.

Take `CC[Si](CC)(CC)N(CCCOCCO)[Si](CC)(CC)CC` [Initiator 1]: in data set [1], the “solubility … THF” value is listed as “Excellent” and the “dissolution in the solvent(s)” value was “dissolved in the solvent”. Also, the “stability of the initiator” value in data set [2] is on record as “stably existed”.

For the compound `C=CCN(CC=C)CCCOCCOCCO` [Ref 4], in data set [1], the “solubility … THF” value was “Excellent” and the “dissolution in the solvent(s)” value is “dissolved in a solvent”.

Turning to `O=C1c2ccccc2C(=O)N1CCCOCCOCCOCCO` [Ref 5], in data set [1], the “solubility … THF” value is listed as “Excellent” and the “dissolution in the solvent(s)” value is “dissolved in a solvent”.

As for `C[Si]1(C)CC[Si](C)(C)N1CCCO` [Comparative initiator 6, reference compound], in data set [1], the “solubility … THF” value was “Poor” and the “solubility … Toluene” value is “Poor”. The “stability of the initiator” value in data set [2] is “changes in the position protected by a protective group progressed”.

Take `C=CCN(CC=C)CCCO` [Comparative initiator 3, reference compound]: in data set [1], the “solubility … THF” value was “Poor”, the “solubility … Toluene” value is recorded as “Poor” and the “dissolution in the solvent(s)” value is given as “did not dissolve in the solvents”.

As to `C=CCN(CC=C)CCCCCCO` [Ref 11], in data set [1], the “solubility … Toluene” value was “Excellent” and the “dissolution in the solvent(s)” value is recorded as “dissolved in a solvent”.

In the case of `CC(C)(C)OC(=O)N(CCCO)C(=O)OC(C)(C)C` [Comparative initiator 8, reference compound], in data set [1], the “solubility … THF” value is on record as “Poor”, the “solubility … Toluene” value was “Poor” and the “dissolution in the solvent(s)” value is “did not dissolve in the solvents”.

For `CC(C)(C)[Si](C)(C)NCCCOCCO` [Initiator 6], in data set [1], the “solubility … THF” value was “Excellent” and the “dissolution in the solvent(s)” value is “dissolved in the solvent”. Further, the “stability of the initiator” value in data set [2] was “stably existed”.

Consider `C[Si]1(C)CC[Si](C)(C)N1CCCOCCO` [Initiator 7], for which, in data set [1], the “solubility … THF” value is reported as “Excellent” and the “dissolution in the solvent(s)” value is on record as “dissolved in the solvent”. Moreover, the “stability of the initiator” value in data set [2] is given as “stably existed”.

In the case of `C[Si](C)(C)N(CCCO)[Si](C)(C)C` [Comparative initiator 2, reference compound], in data set [1], the “solubility … THF” value is “Poor” and the “solubility … Toluene” value is on record as “Poor”. Further, the “stability of the initiator” value in data set [2] is given as “changes in the position protected by a protective group progressed”.

As for `OCCCN(Cc1ccccc1)Cc1ccccc1` [Comparative initiator 7, reference compound], in data set [1], the “solubility … THF” value is given as “Poor”, the “solubility … Toluene” value is listed as “Poor” and the “dissolution in the solvent(s)” value is “did not dissolve in the solvents”.

Regarding `O=C1c2ccccc2C(=O)N1CCCO` [Comparative initiator 4, reference compound], in data set [1], the “solubility … THF” value was “Poor”, the “solubility … Toluene” value was “Poor” and the “dissolution in the solvent(s)” value is given as “did not dissolve in the solvents”.

Regarding `C[Si]1(C)CC[Si](C)(C)N1CCCCCCO` [Initiator 12], in data set [1], the “solubility … Toluene” value is recorded as “Excellent” and the “dissolution in the solvent(s)” value was “dissolved in the solvent”. The “stability of the initiator” value in data set [2] is “stably existed”.

On to `CC[Si](CC)(CC)N(CCCO)[Si](CC)(CC)CC` [Comparative initiator 1, reference compound], for which, in data set [1], the “solubility … THF” value was “Poor” and the “solubility … Toluene” value is given as “Poor”. Also, in data set [2], the “stability of the initiator” value was “changes in the position protected by a protective group progressed”.
